Target: T1, FRAP1 (mTOR) kinase (Homo sapiens, UniProt P42345)
T1 construct: purchased Invitrogen PV4753
Assay: Inhibition of mTOR-induced p-4E-BP1 phosphorylation (TR-FRET mTOR Activity Kit; Invitrogen)
Format: biochemical
Details: 400 nM GFP-4E-BP1 substrate, ~150 ng/mL mTOR, one hour at room temperature
Source text: Inhibition of mTOR-Induced p-4E-BP1 Phosphorylation (TR-FRET mTOR Activity Kit; Invitrogen)
• GFP-4E-BP1 substrate; Invitrogen order no. PV4759 • Lanthascreen Tb-anti-p4E-BP1 (pThr46) Antibody Kit; Invitrogen order no. PV4758 • FRAP1 (mTOR) kinase; Invitrogen order no. […] Preparation of Reagents: Note: Thaw and keep mTOR, the substrate, ATP, and the antibody on ice prior to making working dilutions. Working dilutions of these components can be kept at room temperature for short periods of time the day of use. 1. Add 2 ml of 5× Assay Buffer to 8 ml water to prepare 10 ml of 1× Assay Buffer. Note: The concentration of 1× Assay Buffer is 50 mM HEPES pH 7.5, 0.01% Polysorbate 20, 1 mM EGTA, and 10 mM MnCl2. 2. Prepare Antibody/EDTA Solution by first adding 2.75 n1 of Tb-anti p4E-BP1 Antibody to 2397 n1 of LanthaScreen™ TR-FRET Dilution Buffer. Then, add 100 n1 of 0.5 M EDTA. 3. Prepare 4× Substrate/Enzyme Solution by first adding 72 n1 of GFP-4E-BP1 (22 nM) to 926 n1 of 1× Assay Buffer. Then, add 1.6 n1 of mTOR (0.45 mg/mL). 4. Prepare ATP Solution by adding 3.2 n1 of 10 mM ATP to 1997 n1 of 1× Assay Buffer. Serial Dilution of Inhibitors (16 Point Curve): Note: It is recommended that inhibitors be serially diluted in DMSO, then diluted to a 4× working concentration with 1× Assay Buffer. The below procedure describes dilution of compounds in a 96-well format prior to transfer to a 384-well format for kinase assays. This procedure calls for dilution of the compounds in 2 adjacent columns of a 96-well plate, which upon transfer to a single column of a 384-well plate with an 8-channel pipette will align the samples in order of concentration. 1. Dispense 40 n1 of DMSO to two adjacent columns of a 96 well plate per compound (e.g. columns 1 and 2). 2. Add 10 n1 of inhibitor stock (10 mM) to the first well of the first column (A1) and mix. 3. Remove 10 n1 from A1 and transfer to the adjacent well in the next column (B1) and mix. 4. Remove 10 n1 from B1 and transfer to the next well in the first column (B2) and mix. 5. Repeat this dilution pattern through well H1 and leave the last well (H2) as DMSO only. 6. Remove 4 n1 of diluted compounds and add to 96 n1 of 1× Assay Buffer in a 96-well plate making 4× compound dilutions. Kinase Reaction: 1. Add 2.5 μl of 4× compound dilutions from the first column of the 96-well plate to every other well of column 1 of a 384-well plate with an 8-channel pipette. Repeat for columns 2 and 3. 2. Add 2.5 n1 of 4× compound dilutions from the second column of the 96-well plate to the empty wells of column 1 of the 384-well plate with an 8-channel pipette. Repeat for columns 2 and 3. Note: This procedure aligns the compound dilutions in order of concentration. 3. Add 2.5 n1 of 4× Enzyme/Substrate Solution to all columns 1-6. 4. Preincubate for 30 min. at RT (shaker). 5. Add 5 n1 of ATP Solution to all wells to start reactions. 6. Shake the assay plate on a plate shaker for 30 seconds. 7. Incubate the assay plate for one hour at room temperature (20-25° C.). Stop Step and Fluorescence Detection: 1. Add 10 n1 of Antibody/EDTA Solution to each well in columns 1-9. 2. Shake the assay plate on a plate shaker for 30 seconds. 3. Incubate the assay plate for one hour at room temperature (20-25° C.). 4. Measure the GFP (FRET) and terbium (reference) emission signals on a fluorescence plate reader (e.g. Perkin Elmer Envision). Data Analysis: 1. Calculate the emission ratio for each sample by dividing the GFP (FRET) signal by the terbium (reference) signal. 2. Plot the concentration of each compound versus the emission ratio. Determine the concentration of compound required to reach 50% of the maximum signal (IC50). Determination of IC50 values can be obtained by curve fitting (sigmoidal dose response, variable slope) using Prism software from GraphPad). Inhibition of Proliferation: CyQuant PC-3 Description: […]

T1 sequence (P42345 1360-2549 limits assumed): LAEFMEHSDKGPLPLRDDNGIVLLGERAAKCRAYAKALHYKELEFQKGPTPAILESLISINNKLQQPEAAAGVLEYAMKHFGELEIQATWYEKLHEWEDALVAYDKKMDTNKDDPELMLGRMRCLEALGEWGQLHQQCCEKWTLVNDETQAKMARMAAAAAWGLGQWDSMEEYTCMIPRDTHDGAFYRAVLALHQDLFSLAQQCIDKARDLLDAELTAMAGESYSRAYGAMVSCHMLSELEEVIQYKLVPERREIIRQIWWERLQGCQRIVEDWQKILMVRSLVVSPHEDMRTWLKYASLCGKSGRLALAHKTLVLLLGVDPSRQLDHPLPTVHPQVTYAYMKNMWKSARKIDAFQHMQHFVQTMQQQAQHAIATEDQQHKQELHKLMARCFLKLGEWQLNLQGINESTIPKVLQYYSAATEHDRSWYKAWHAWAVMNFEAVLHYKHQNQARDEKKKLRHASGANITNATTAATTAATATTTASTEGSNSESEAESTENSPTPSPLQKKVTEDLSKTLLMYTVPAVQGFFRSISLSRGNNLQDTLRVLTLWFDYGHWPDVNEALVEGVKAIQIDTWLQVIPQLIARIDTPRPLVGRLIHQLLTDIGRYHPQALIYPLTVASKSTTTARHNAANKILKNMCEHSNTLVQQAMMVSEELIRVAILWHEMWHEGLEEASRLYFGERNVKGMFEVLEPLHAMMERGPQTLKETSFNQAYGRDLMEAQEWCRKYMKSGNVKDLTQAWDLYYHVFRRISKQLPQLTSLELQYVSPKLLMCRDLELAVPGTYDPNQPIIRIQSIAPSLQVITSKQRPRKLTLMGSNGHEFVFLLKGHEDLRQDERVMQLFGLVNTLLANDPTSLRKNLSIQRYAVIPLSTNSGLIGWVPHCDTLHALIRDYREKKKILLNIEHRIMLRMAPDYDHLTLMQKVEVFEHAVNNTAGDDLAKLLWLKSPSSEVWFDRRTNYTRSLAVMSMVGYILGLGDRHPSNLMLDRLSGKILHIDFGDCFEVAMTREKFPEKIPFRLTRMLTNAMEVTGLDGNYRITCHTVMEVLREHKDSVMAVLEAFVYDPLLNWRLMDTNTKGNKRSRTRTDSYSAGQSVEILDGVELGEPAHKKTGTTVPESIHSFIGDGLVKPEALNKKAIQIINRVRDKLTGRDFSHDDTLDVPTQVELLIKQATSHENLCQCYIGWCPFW

| Compound | IC50 |
| --- | --- |
| Cn1ncc2c1-c1sc(-c3cccnc3)nc1CCC2 [Example G-02] | ≥ 20 µM |
| Cc1ccc(-c2nn(-c3ccccc3C)c3c2CCCc2nc(NC(=O)NCCN(C)C)sc2-3)cn1 [Example D-07] | 1.28 µM |
| CC(=O)Nc1nc2c(s1)-c1c(c(-c3cncn3C)nn1-c1ccccc1C)CCC2 [Example B-93] | 1.11 µM |
| CCNc1ccc(-c2nn(-c3ccncc3C)c3c2CCCc2nc(N)sc2-3)cn1 [Example C-07] | 2.19 µM |
| CCOC(=O)CCCNC(=O)c1nn(C(C)C)c2c1CCCc1nc(NC(C)=O)sc1-2 [Example E-12] | 5.41 µM |
| CC(=O)Nc1nc2c(s1)-c1c(c(C(=O)N(C)C)nn1C(C)C)CCC2 [Example E-02] | 16 µM |
| Cc1ccc(-c2nn(-c3ccccc3C)c3c2CCCc2nc(NC(N)=O)sc2-3)cn1 [Example D-04] | 0.402 µM |
| CCNc1ccc(-c2nn(C(C)COC)c3c2CCCc2nc(NC(C)=O)sc2-3)cn1 (centres unmarked) [Example B-126] | 0.084 µM |
| CC(=O)Nc1nc2c(s1)-c1c(c(-c3cncn3C)nn1-c1ccccc1)CCC2 [Example B-94] | 8.36 µM |
| CNc1ccc(-c2nn(-c3cccnc3)c3c2CCCc2nc(NC(C)=O)sc2-3)cn1 [Example B-84] | 0.05 µM |
| CC(=O)Nc1nc2c(s1)-c1c(c(C(=O)Nc3cc[nH]n3)nn1C(C)C)CCC2 [Example E-10] | 1.58 µM |
| CC(C)n1ncc2c1-c1scnc1CCC2 [Example C-08, 1-Isopropyl-1,4,5,6-tetrahydro-9-thia-1,2,7-triaza-cyclopent[e]azulene] | 2.44 µM |
| CNc1ccc(-c2nn(CCN3CCOCC3)c3c2CCCc2nc(NC(=O)N(C)C)sc2-3)cn1 [Example B-98] | 0.737 µM |
| CNC(=O)Nc1nc2c(s1)-c1c(c(-c3ccc(NC)nc3)nn1-c1ccccc1C)CCC2 [Example B-142, 1-Methyl-3-[3-(6-methylamino-pyridin-3-yl)-1-o-tolyl-1,4,5,6-tetrahydro-9-thia-1,2,7-triaza-cyclopent[e]azulen-8-yl]-urea] | 0.092 µM |
| CC(=O)Nc1nc2c(s1)-c1c(c(C(=O)NCCO)nn1C(C)C)CCC2 [Example E-04] | 4.89 µM |
| CCNc1ccc(-c2nn(-c3cccnc3C)c3c2CCCc2nc(NC(=O)N(C)C)sc2-3)cn1 [Example B-141] | 0.512 µM |
| COCCNC(=O)c1nn(C(C)C)c2c1CCCc1nc(NC(C)=O)sc1-2 [Example E-07] | 11.4 µM |
| CCNc1ccc(-c2nn(-c3ccccc3Br)c3c2CCCc2nc(NC(C)=O)sc2-3)cn1 [Example B-74] | 0.168 µM |
| CC(=O)Nc1nc2c(s1)-c1c(c(C(=O)N(C)CCN(C)C)nn1C(C)C)CCC2 [Example E-03] | 4.85 µM |
| CN(C)C(=O)Nc1nc2c(s1)-c1c(c(-c3ccc(N)nc3)nn1-c1ccccc1F)CCC2 [Example B-97] | 0.175 µM |
| CNC(=O)Nc1nc2c(s1)-c1c(c(-c3ccc(NC)nc3)nn1C(C)C)CCC2 [Example B-144, 1-[1-Isopropyl-3-(6-methylamino-pyridin-3-yl)-1,4,5,6-tetrahydro-9-thia-1,2,7-triaza-cyclopent[e]azulen-8-yl]-3-methyl-urea] | 0.113 µM |
| COCC(=O)Nc1nc2c(s1)-c1c(c(-c3ccc(N)nc3)nn1-c1ccccc1C)CCC2 [Example B-104, N-[3-(6-Amino-pyridin-3-yl)-1-o-tolyl-1,4,5,6-tetrahydro-9-thia-1,2,7-triaza-cyclopenta[e]azulen-8-yl]-2-methoxy-acetamide] | 0.072 µM |

| Compound | IC50 |
| --- | --- |
| CC(=O)Nc1nc2c(s1)-c1c(c(C(=O)NCCCO)nn1C(C)C)CCC2 [Example E-06] | 18 µM |
| CC(=O)Nc1nc2c(s1)-c1c(c(-c3c[nH]c(C)n3)nn1CCN(C)C)CCC2 [Example B-119] | 1.88 µM |
| CNc1ccc(-c2nn(-c3ccccc3C)c3c2CCCc2nc(NC(=O)COC)sc2-3)cn1 [Example B-107, 2-Methoxy-N-[3-(6-methylamino-pyridin-3-yl)-1-o-tolyl-1,4,5,6-tetrahydro-9-thia-1,2,7-triaza-cyclopenta[e]azulen-8-yl]-acetamide] | 0.427 µM |
| CC(=O)Nc1nc2c(s1)-c1c(c(C(=O)Nc3ccccc3)nn1C(C)C)CCC2 [Example E-09] | 8.45 µM |
| CCc1ccccc1-n1nc(-c2ccc(NC)nc2)c2c1-c1sc(NC(C)=O)nc1CCC2 [Example B-88, N-[1-(2-Ethyl-phenyl)-3-(6-methylamino-pyridin-3-yl)-1,4,5,6-tetrahydro-9-thia-1,2,7-triaza-cyclopenta[e]azulen-8-yl]-acetamide] | 0.269 µM |
| COCCN(C)C(=O)c1nn(C(C)C)c2c1CCCc1nc(NC(C)=O)sc1-2 [Example E-08] | ≥ 20 µM |
| CCNc1ccc(-c2nn(-c3ccccc3C)c3c2CCCc2nc(NC(=O)COC)sc2-3)cn1 [Example B-100, N-[3-(6-Ethylamino-pyridin-3-yl)-1-o-tolyl-1,4,5,6-tetrahydro-9-thia-1,2,7-triaza-cyclopenta[e]azulen-8-yl]-2-methoxy-acetamide] | 0.286 µM |
| COC(=O)CCNC(=O)c1nn(C(C)C)c2c1CCCc1nc(NC(C)=O)sc1-2 [Example E-11] | 6.26 µM |
| CCNc1ccc(-c2nn(C(C)(C)C)c3c2CCCc2nc(NC(C)=O)sc2-3)cn1 [Example B-123] | 1.14 µM |
| CCNc1ccc(-c2nn(C(C)C)c3c2CCCc2nc(NC(=O)NC)sc2-3)cn1 [Example B-140] | 0.182 µM |
| COCC(=O)Nc1nc2c(s1)-c1c(c(-c3ccc(C)nc3)nn1-c1ccccc1C)CCC2 [Example E-13] | 0.524 µM |
| COCCC(=O)Nc1nc2c(s1)-c1c(c(-c3ccc(C)nc3)nn1-c1ccccc1C)CCC2 [Example E-14] | 0.698 µM |
| CC(=O)Nc1nc2c(s1)-c1c(c(-c3c[nH]cn3)nn1CCN(C)C)CCC2 [Example B-110] | 0.84 µM |
| CC(=O)Nc1nc2c(s1)-c1c(c(C(=O)N(C)CCO)nn1C(C)C)CCC2 [Example E-05] | ≥ 20 µM |
| CNC(=O)Nc1nc2c(s1)-c1c(c(-c3ccc(C)nc3)nn1-c1ccccc1C)CCC2 [Example D-05] | 0.358 µM |
| CNC(=O)c1nn(C(C)C)c2c1CCCc1nc(NC(C)=O)sc1-2 [Example E-01] | 5.18 µM |
| COCCNC(=O)Nc1nc2c(s1)-c1c(c(-c3ccc(C)nc3)nn1-c1ccccc1C)CCC2 [Example D-06] | 1.6 µM |
| CC(=O)Nc1nc2c(s1)-c1c(c(-c3ccc(C)nc3)nn1-c1cccnc1)CCC2 [Example B-95] | 0.074 µM |
| CCNc1ccc(-c2nn(-c3ccccc3C)c3c2CCCc2nc(N)sc2-3)cn1 [Example C-03] | 3.34 µM |
| CCNc1ccc(-c2nn(CCN3CCOCC3)c3c2CCCc2nc(NC(C)=O)sc2-3)cn1 [Example B-124] | 0.994 µM |
| Cc1ccccc1-n1nc(-c2ccc(N)nc2)c2c1-c1sc(NC(=O)CN)nc1CCC2 [Example B-102] | 0.032 µM |
| CC(=O)Nc1nc2c(s1)-c1c(c(-c3ccc(N)nc3)nn1CCN1CCOCC1)CCC2 [Example B-105] | 1.39 µM |

Source: US8288379B2, “Thia-triaza-cyclopentazulenes” (Boehringer Ingelheim International GmbH, priority 2009, dated 2012)
